Experimental data reported in patent publication US7202244B2, “Chk-1 inhibitors” (Millennium Pharmaceuticals, Inc., priority 2002, dated 2007).
Values belong to the compound of their own block, whether it stands above or below them.

Experiments:
[1] = test system: HT29, HCT116 or other cells; experiment: WST assay: enhancement of cell killing by DNA damaging agents; format: cell-based; conditions: shift of 1 = no shift; for Shift 1.25 μM: Chk1 inhibitor fixed at 1.25 μM with DNA damaging agent titration; for Shift 2.5 μM: Chk1 inhibitor fixed at 2.5 μM with DNA damaging agent titration; for Shift 156 nM: Chk1 inhibitor fixed at 156 nM with DNA damaging agent titration; for Shift 313 nM: Chk1 inhibitor fixed at 313 nM with DNA damaging agent titration; for Shift 625 nM: Chk1 inhibitor fixed at 625 nM with DNA damaging agent titration; for Shift 78 nM: Chk1 inhibitor fixed at 78 nM with DNA damaging agent titration
Experimental: HT29, HCT116 (5000 cells/well) or other cells were seeded (75 ul) to 96 well clear bottom plates at densities which provide linear growth curves for 72 hours. Cells were cultured under sterile conditions in appropriate media and for HT29 & HCT116 this media was McCoy's 5A containing 10% Fetal Bovine Serum (FBS). Following the initial seeding of cells they are incubated at 37° C., 5% CO2 from 17 to 24 hours at which time the appropriate DNA damaging agents (camptothecins, 5-fluorouracil and etoposid) are added at increasing concentrations to a point which is capable of causing at least 80% cell killing with in 48 hours. Final volume of all DNA damaging agent & compound additions was 25 ul and assays contained <1% DMSO final. At the same time as DNA Damaging agent addition, Chk1 inhibitor was added at fixed concentrations to each DNA damaging agent titration to observe enhancement of cell killing. In addition, toxicity of each Chk1 inhibitor alone was observed. By doing this over a range of Chk1 inhibitor concentrations we were able to identify compounds which maximally enhance (2–30 fold) cell killing by each DNA damaging agent and generated ≦80% cell killing by the compound alone. Cell viability/cell killing under the conditions described above was determined by addition WST reagent (Roche) according to the manufacturer at 47 hours following DNA damage & Chk1 inhibitor addition and following a 3.5 hour or 2.5 hour incubation at 37 C, 5% CO2, OD450 was measured.

CHK-1 = molecular target: T1, CHK-1 (Homo sapiens, UniProt O14757); experiment: IC50 for the test compound versus CHK-1 (Table 2, assay format not stated); format: biochemical
T1 sequence (O14757 1-476): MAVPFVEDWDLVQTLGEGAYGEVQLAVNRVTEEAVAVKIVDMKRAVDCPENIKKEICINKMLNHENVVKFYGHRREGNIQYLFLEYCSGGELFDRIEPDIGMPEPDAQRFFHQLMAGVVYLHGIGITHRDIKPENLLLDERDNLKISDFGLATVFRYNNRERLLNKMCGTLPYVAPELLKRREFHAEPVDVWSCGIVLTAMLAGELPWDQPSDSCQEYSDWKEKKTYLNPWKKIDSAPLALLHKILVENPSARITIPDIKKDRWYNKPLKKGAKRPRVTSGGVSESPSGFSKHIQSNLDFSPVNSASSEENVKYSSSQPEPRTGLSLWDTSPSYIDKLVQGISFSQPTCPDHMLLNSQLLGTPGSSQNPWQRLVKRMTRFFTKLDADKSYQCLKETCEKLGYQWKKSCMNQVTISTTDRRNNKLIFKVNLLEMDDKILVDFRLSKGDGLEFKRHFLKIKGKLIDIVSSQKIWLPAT

[2] = molecular target: T2, GST-Chk1 (recombinant human Chk1) (Homo sapiens, UniProt O14757); experiment: Chk1 FlashPlate kinase assay; format: biochemical; conditions: 1 uM ATP
T2 construct: made in house; host or cells: insect cells (Bac-to-Bac baculovirus system)
T2 sequence (O14757 1-476): T1 sequence (O14757 1-476)
Experimental: Recombinant human Chk1 was expressed as a fusion protein with glutathione S-transferase at the amino-terminus (GST-Chk1) using standard baculovirus vectors and (Bac-to-Bac®) insect cell expression system purchased from GIBCO™ Invitrogen. Recombinant protein expressed in insect cells was purified using glutathione sepharose (Amersham Biotech) using standard procedures described by the manufacturer.
Chk1 FlashPlate® Kinase Assay:
Reactions were incubated for 30 minutes at room temperature, terminated with 50 ul of 50 mM EDTA and 90 ul were transferred to streptavidin-coated FlashPlates® (NEN) and incubated for 1 hour at room temperature. Plates were washed with phosphate buffered salaine containing 0.01% Tween-20 and 10 mM sodium pyrophosphate. Plates were dried, sealed with Topseal™ (NEN) and amount of ^33P incorporated into the peptide substate measure using a Packard Topcount® NXT™ scintillation counter with standard settings.
Compounds of the present invention were tested in the Chk1 FlashPlate® kinase assay described above.

Compound: O=C(Nc1cnccn1)Nc1ccccc1OC(F)(F)F [Example 9, 1-Pyrazin-2-yl-3-(2-trifluoromethoxy-phenyl)-urea]
- IC50 [2]: < 1 µM

Compound: Cc1cnc(NC(=O)Nc2cc(Cl)ccc2OCCCNC2CCC2)cn1 [Compound 112]
- IC50 [2]: < 0.1 µM

Compound: CN(C)CCCOc1ccc(Cl)cc1NC(=O)Nc1cnc2ccccc2n1 [Example 30, 1-[5-Chloro-2-(3-dimethylamino-propoxy)-phenyl]-3-quinoxalin-2-yl-urea]
- Shift 1.25 μM [1]: 1
- Shift 2.5 μM [1]: 1.4
- IC50 (CHK-1): 0.019 µM

Compound: O=C(Nc1ccc2c(c1)OCO2)Nc1cnccn1 [Example 24, 1-Benzo[1,3]dioxol-5-yl-3-pyrazin-2-yl-urea]
- IC50 [2]: < 20 µM

Compound: CC(C)CCOc1ccc(Cl)cc1NC(=O)Nc1cnccn1 [Example 7, 1-[5-Chloro-2-(3-methyl-butoxy)-phenyl]-3-pyrazin-2-yl-urea]
- IC50 [2]: < 1 µM

Compound: O=C(Nc1cnccn1)Nc1cc(Cl)ccc1OCCN1CC1 [Example 26, 1-[2-(2-Aziridin-1-yl-ethoxy)-5-chloro-phenyl]-3-pyrazin-2-yl-urea]
- IC50 [2]: < 1 µM

Compound: O=C(Nc1cnccn1)Nc1cnccn1 [Example 23, 1,3-Di-pyrazin-2-yl-urea]
- IC50 [2]: < 20 µM

Compound: Cc1cnc(NC(=O)Nc2cc(Cl)ccc2OCCCN(C)C)cn1 [Example 25, 1-[5-Chloro-2-(3-dimethylamino-propoxy)-phenyl]-3-(5-methyl-pyrazin-2-yl)-urea]
- Shift 156 nM [1]: 1.1
- Shift 313 nM [1]: 1.7
- Shift 625 nM [1]: 2.5
- Shift 1.25 μM [1]: 3.3
- Shift 2.5 μM [1]: 4.4
- IC50 [2]: < 0.1 µM
- IC50 (CHK-1): 0.0045 µM

Compound: O=C(Nc1cnccn1)Nc1cc(Cl)ccc1OCCN1CCOCC1 [Example 5, 1-[5-Chloro-2-(2-morpholin-4-yl-ethoxy)-phenyl]-3-pyrazin-2-yl-urea]
- IC50 [2]: < 1 µM

Compound: NCCCOc1ccc(Cl)cc1NC(=O)Nc1cnc2ccccc2n1 [Example 31, 1-[2-(3-Amino-propoxy)-5-chloro-phenyl]-3-quinoxalin-2-yl-urea]
- Shift 156 nM [1]: 1.3
- Shift 313 nM [1]: 1.8
- Shift 625 nM [1]: 2.8
- Shift 1.25 μM [1]: 4.4
- Shift 2.5 μM [1]: 6.2
- IC50 (CHK-1): 0.005 µM

Compound: O=C(Nc1cnccn1)Nc1cc(Cl)ccc1OCc1cccnc1 [Example 27, 1-[5-Chloro-2-(pyridin-3-ylmethoxy)-phenyl]-3-pyrazin-2-yl-urea]
- IC50 [2]: < 1 µM

Compound: Cc1cnc(NC(=O)Nc2cc(Cl)ccc2OCCCCN)cn1 [Example 33, 1-[2-(4-Amino-butoxy)-5-chloro-phenyl]-3-(5-methyl-pyrazin-2-yl)-urea]
- Shift 78 nM [1]: 1.8
- Shift 156 nM [1]: 2.4
- Shift 313 nM [1]: 2.7
- Shift 625 nM [1]: 3.1
- IC50 (CHK-1): 0.003 µM

Compound: NCCCOc1ccc(Cl)cc1NC(=O)Nc1ccc(C(N)=O)cn1 [Compound 110]
- IC50 [2]: < 0.1 µM

Compound: N#Cc1ccc(NC(=O)Nc2cc(Cl)ccc2OCCCN)nc1 [Compound 111]
- IC50 [2]: < 0.1 µM

Compound: COc1ccc(NC(=O)Nc2cnccn2)c(OC)c1 [Example 14, 1-(2,4-Dimethoxy-phenyl)-3-pyrazin-2-yl-urea]
- IC50 [2]: < 1 µM

Compound: Cc1ccc(OCCCN(C)C)c(NC(=O)Nc2cnccn2)c1 [Example 35, 1-[5-Methyl-2-(3-dimethylamino-propoxy)-phenyl]-3-pyrazin-2-yl-urea]
- Shift 1.25 μM [1]: 2.1
- Shift 2.5 μM [1]: 2.9
- IC50 (CHK-1): 0.016 µM

Compound: O=C(Nc1cccc(Cl)c1)Nc1cnccn1 [Example 19, 1-(3-Chloro-phenyl)-3-pyrazin-2-yl-urea]
- IC50 [2]: < 20 µM

Compound: Cc1cnc(NC(=O)Nc2cc(Cl)ccc2OCC(C)(C)CN)cn1 [Compound 109]
- IC50 [2]: < 0.1 µM

Compound: Cc1cnc(NC(=O)Nc2cc(Cl)ccc2OCCN(C)C)cn1 [Example 3, 1-[5-Chloro-2-(2-dimethylamino-ethoxy)-phenyl]-3-(5-methyl-pyrazin-2-yl)-urea]
- IC50 [2]: < 0.1 µM

Compound: O=C(Nc1ccc(N2CCCCC2)cc1)Nc1cnccn1 [Example 21, 1-(4-Piperidin-1-yl-phenyl)-3-pyrazin-2-yl-urea]
- IC50 [2]: < 20 µM

Further lines, with some results ahead:

- IC50 (CHK-1): 0.016 µM
Compound: NCCOc1ccc(Cl)cc1NC(=O)Nc1cnccn1 [Example 32, 1-[2-(2-Amino-ethoxy)-5-chloro-phenyl]-3-pyrazin-2-yl-urea]
- Shift 1.25 μM [1]: 1.2
- Shift 2.5 μM [1]: 1.4

- IC50 [2]: < 1 µM
Compound: COc1cc(Cl)c(C)cc1NC(=O)Nc1cnccn1 [Compound 46]

- IC50 [2]: < 20 µM
Compound: COc1ccc(NC(=O)Nc2cnccn2)cc1Cl [Example 18, 1-(3-Chloro-4-methoxy-phenyl)-3-pyrazin-2-yl-urea]

- IC50 (CHK-1): 0.02 µM
Compound: COc1cncc(NC(=O)Nc2cc(Cl)ccc2OCCCN)n1 [Example 34]
- Shift 1.25 μM [1]: 2.4
- Shift 2.5 μM [1]: 3.031

- IC50 [2]: < 1 µM
Compound: COc1ccc(NC(C)=O)cc1NC(=O)Nc1cnccn1 [Example 11, N-[4-Methoxy-3-(3-pyrazin-2-yl-ureido)-phenyl]-acetamide]

- IC50 [2]: < 20 µM
Compound: COc1ccc(Cl)cc1NC(=O)Nc1ccncn1 [Example 16, 1-(5-Chloro-2-methoxy-phenyl)-3-pyrimidin-4-yl-urea]

- IC50 [2]: < 1 µM
Compound: COc1ccc(C)cc1NC(=O)Nc1cnccn1 [Example 8, 1-(2-Methoxy-5-methyl-phenyl)-3-pyrazin-2-yl-urea]

- IC50 [2]: < 1 µM
Compound: COc1ccc(Cl)cc1NC(=O)Nc1cnccn1 [Example 6, 1-(5-Chloro-2-methoxy-phenyl)-3-pyrazin-2-yl-urea]

- IC50 [2]: < 0.1 µM
- IC50 (CHK-1): 0.0035 µM
Compound: CN(C)CCCOc1ccc(Cl)cc1NC(=O)Nc1cnccn1 [Example 1, 1-[5-Chloro-2-(3-dimethylamino-propoxy)-phenyl]-3-pyrazin-2-yl-urea]
- Shift 156 nM [1]: 1
- Shift 313 nM [1]: 1.2
- Shift 625 nM [1]: 1.6
- Shift 1.25 μM [1]: 2.2
- Shift 2.5 μM [1]: 3.4

- IC50 [2]: < 20 µM
Compound: COc1ccccc1NC(=O)Nc1cnccn1 [Example 17, 1-(2-Methoxy-phenyl)-3-pyrazin-2-yl-urea]

- IC50 [2]: < 1 µM
Compound: COc1ccc(C(F)(F)F)cc1NC(=O)Nc1cnccn1 [Example 13, 1-(2-Methoxy-5-trifluoromethyl-phenyl)-3-pyrazin-2-yl-urea]

- IC50 (CHK-1): 0.004 µM
Compound: Cc1cnc(NC(=O)Nc2cc(Cl)ccc2OCCCN)cn1 [Example 28]
- Shift 78 nM [1]: 2.7
- Shift 156 nM [1]: 3.4
- Shift 313 nM [1]: 5.3
- Shift 625 nM [1]: 6.8
- Shift 1.25 μM [1]: toxic
- Shift 2.5 μM [1]: toxic

- IC50 [2]: < 1 µM
Compound: COC(=O)c1ccc(OC)c(NC(=O)Nc2cnccn2)c1 [Example 12, 4-Methoxy-3-(3-pyrazin-2-yl-ureido)-benzoic acid methyl ester]

- IC50 [2]: < 1 µM
Compound: COc1ccc(Cl)c(NC(=O)Nc2cnccn2)c1 [Example 15, 1-(2-Chloro-5-methoxy-phenyl)-3-pyrazin-2-yl-urea]

- IC50 (CHK-1): 0.0025 µM
Compound: NCCCOc1ccc(Cl)cc1NC(=O)Nc1cnccn1 [Example 29, 1-[2-(3-Amino-propoxy)-5-chloro-phenyl]-3-pyrazin-2-yl-urea]
- Shift 78 nM [1]: 2.5
- Shift 156 nM [1]: 3.1
- Shift 313 nM [1]: 4.5
- Shift 625 nM [1]: 5.0
- Shift 1.25 μM [1]: toxic
- Shift 2.5 μM [1]: toxic

- IC50 [2]: < 1 µM
Compound: Cc1ccc(Cl)cc1NC(=O)Nc1cnccn1 [Example 10, 1-(5-Chloro-2-methyl-phenyl)-3-pyrazin-2-yl-urea]
